Literature values, collected in PubChem BioAssay AID1259409 (Chemical Carcinogenesis Research Information System (CCRIS), 2018).
*1 amine or outer side, *2 acyl side, *3 side chain or, on linkers, in order; H or OH if unused. Where a SMILES comes first, the peptide text is derived from it. [ ]: non-standard residue; d: D form. X1 = O=C(C(N[*:1])c1ccc(OS(=O)(=O)O)cc1)[*:2]

Test system: rodent chemically induced tumor inhibition, incidence and multiplicity
Assay: CCRIS tumor inhibitor studies
Details: Carcinogen: N-NITROSOBIS(2-OXOPROPYL)AMINE, 60599-38-4, Route [Inhibitor]: SUBCUTANEOUS, Species: HAMSTER, Strain/Sex: SYRIAN/MALE, FEMALE, Promoter: NONE USED

## CCC(C)C(NC(=O)C(CCCNC(=N)N)NC(=O)C(Cc1c[nH]cn1)NC(=O)C(CO)NC(=O)C1CCCN1C(=O)C(CC(=O)O)NC(=O)C(CC(C)C)NC(=O)C(CC(N)=O)NC(=O)C(CCC(N)=O)NC(=O)C(CC(C)C)NC(=O)C(CC(N)=O)NC(=O)C(CCCCN)NC(=O)C(NC(=O)C(NC(=O)C(CO)NC(=O)C(CCSC)NC(=O)C(CCCNC(=N)N)NC(=O)CNC(=O)C(CO)NC(=O)C1CCCN1C(=O)C(C)NC(=O)C(N)CCCCN)C(C)CC)C(C)C)C(=O)NC(CO)C(=O)NC(CC(=O)O)C(=O)NC(CCCNC(=N)N)C(=O)NC(CC(=O)O)C(=O)NC(C(=O)NC(CCSC)C(=O)NCC(=O)NC(Cc1c[nH]c2ccccc12)C(=O)NC(CCSC)C(=O)NC(CC(=O)O)C(=O)NC(Cc1ccccc1)C(N)=O)c1ccc(OS(=O)(=O)O)cc1 (stereo not given) (H-KAPSGRMSIVKNLQNLDPSHRISDRD[X1]MGWMDF-NH2; configuration not given here)
Dose [Inhibitor]: 20 IDU/KG BW 6/D FOR 15 WK FIRST DOSE GIVEN 3 HR POST CARCINOGEN DOSE (STUDY DURATION: 46 WK), Target Tissue: Type of Lesion: PANCREAS: DUCTAL/DUCTULAR CARCINOMA, Dose [Carcinogen]: 20 MG/KG BW IN PHYSIOLOGICAL SALINE ONCE
  tumour outcome (control, treated, inhibition, significance): 21/40 (52%), 10/37 (27%), 48%, p<0.05
Dose [Inhibitor]: 20 IDU/KG BW 6/D FOR 15 WK FIRST DOSE GIVEN 3 HR POST CARCINOGEN DOSE (STUDY DURATION: 46 WK), Target Tissue: Type of Lesion: PANCREAS: DUCTULAR ADENOMA, Dose [Carcinogen]: 20 MG/KG BW IN PHYSIOLOGICAL SALINE ONCE
  tumour outcome (control, treated, inhibition, significance): 31/40 (78%), 22/37 (59%), 24%, not calculated
Dose [Inhibitor]: 20 IDU/KG BW 6/D FOR 15 WK FIRST DOSE GIVEN 3 HR POST CARCINOGEN DOSE (STUDY DURATION: 46 WK), Target Tissue: Type of Lesion: PANCREAS: DUCTULAR PROLIFERATION, Dose [Carcinogen]: 20 MG/KG BW IN PHYSIOLOGICAL SALINE ONCE
  tumour outcome (control, treated, inhibition, significance): 37/40 (92%), 35/37 (95%), -3%, not calculated
Dose [Inhibitor]: 20 IDU/KG BW INJECTED AT 30 MIN INTERVALS FOR 6 DOSES, FIRST DOSE GIVEN 3 HR POST CARCINOGEN DOSE (STUDY DURATION: 46 WK, Target Tissue: Type of Lesion: PANCREAS: DUCTAL/DUCTULAR CARCINOMA, Dose [Carcinogen]: 20 MG/KG BW IN PHYSIOLOGICAL SALINE ONCE
  tumour outcome (control, treated, inhibition, significance): 21/40 (52%), 17/39 (44%), 15%, not calculated
Dose [Inhibitor]: 20 IDU/KG BW INJECTED AT 30 MIN INTERVALS FOR 6 DOSES, FIRST DOSE GIVEN 3 HR POST CARCINOGEN DOSE (STUDY DURATION: 46 WK, Target Tissue: Type of Lesion: PANCREAS: DUCTULAR PROLIFERATION, Dose [Carcinogen]: 20 MG/KG BW IN PHYSIOLOGICAL SALINE ONCE
  tumour outcome (control, treated, inhibition, significance): 37/40 (92%), 37/39 (95%), -3%, not calculated
Dose [Inhibitor]: 20 IDU/KG BW INJECTED AT 30 MIN INTERVALS FOR 6 DOSES, FIRST DOSE GIVEN 3 HR POST EACH CARCINOGEN DOSE (STUDY DURATION:, Target Tissue: Type of Lesion: PANCREAS: DUCTAL ADENOMA, Dose [Carcinogen]: 2.5 MG/KG BW IN PHYSIOLOGICAL SALINE 1/WK FOR 20 WK
  tumour outcome (control, treated, inhibition, significance): 17/25 (68%), 20/25 (80%), -18%, not calculated
Dose [Inhibitor]: 20 IDU/KG BW INJECTED AT 30 MIN INTERVALS FOR 6 DOSES, FIRST DOSE GIVEN 3 HR POST EACH CARCINOGEN DOSE (STUDY DURATION:, Target Tissue: Type of Lesion: PANCREAS: DUCTAL PROLIFERATION, Dose [Carcinogen]: 2.5 MG/KG BW IN PHYSIOLOGICAL SALINE 1/WK FOR 20 WK
  tumour outcome (control, treated, inhibition, significance): 22/25 (88%), 23/25 (92%), -5%, not calculated
Dose [Inhibitor]: 20 IDU/KG BW INJECTED AT 30 MIN INTERVALS FOR 6 DOSES, FIRST DOSE GIVEN 3 HR POST EACH CARCINOGEN DOSE (STUDY DURATION:, Target Tissue: Type of Lesion: PANCREAS: DUCTAL/DUCTULAR CARCINOMA, Dose [Carcinogen]: 2.5 MG/KG BW IN PHYSIOLOGICAL SALINE 1/WK FOR 20 WK
  tumour outcome (control, treated, inhibition, significance): 15/25 (60%), 23/25 (92%), -53%, not calculated
Dose [Inhibitor]: 20 IDU/KG BW INJECTED AT 30 MIN INTERVALS FOR 6 DOSES, FIRST DOSE GIVEN SIMULTANEOUSLY WITH CARCINOGEN DOSE (STUDY DURAT, Target Tissue: Type of Lesion: PANCREAS: DUCTAL/DUCTULAR CARCINOMA, Dose [Carcinogen]: 20 MG/KG BW IN PHYSIOLOGICAL SALINE ONCE
  tumour outcome (control, treated, inhibition, significance): 21/40 (52%), 5/39 (13%), 75%, p<0.001
Dose [Inhibitor]: 20 IDU/KG BW INJECTED AT 30 MIN INTERVALS FOR 6 DOSES, FIRST DOSE GIVEN SIMULTANEOUSLY WITH CARCINOGEN DOSE (STUDY DURAT, Target Tissue: Type of Lesion: PANCREAS: DUCTULAR ADENOMA, Dose [Carcinogen]: 20 MG/KG BW IN PHYSIOLOGICAL SALINE ONCE
  tumour outcome (control, treated, inhibition, significance): 31/40 (78%), 23/39 (59%), 24%, not calculated
Dose [Inhibitor]: 20 IDU/KG BW INJECTED AT 30 MIN INTERVALS FOR 6 DOSES, FIRST DOSE GIVEN SIMULTANEOUSLY WITH CARCINOGEN DOSE (STUDY DURAT, Target Tissue: Type of Lesion: PANCREAS: DUCTULAR PROLIFERATION, Dose [Carcinogen]: 20 MG/KG BW IN PHYSIOLOGICAL SALINE ONCE
  tumour outcome (control, treated, inhibition, significance): 37/40 (92%), 35/39 (90%), 2%, not calculated
Dose [Inhibitor]: 20 IDU/KG BW INJECTED AT 30 MIN INTERVALS FOR 6 DOSES, FIRST DOSE GIVEN SIMULTANEOUSLY WITH EACH CARCINOGEN DOSE (STUDY, Target Tissue: Type of Lesion: PANCREAS: DUCTAL ADENOMA, Dose [Carcinogen]: 2.5 MG/KG BW IN PHYSIOLOGICAL SALINE 1/WK FOR 20 WK
  tumour outcome (control, treated, inhibition, significance): 17/25 (68%), 21/24 (88%), -29%, not calculated
Dose [Inhibitor]: 20 IDU/KG BW INJECTED AT 30 MIN INTERVALS FOR 6 DOSES, FIRST DOSE GIVEN SIMULTANEOUSLY WITH EACH CARCINOGEN DOSE (STUDY, Target Tissue: Type of Lesion: PANCREAS: DUCTAL PROLIFERATION, Dose [Carcinogen]: 2.5 MG/KG BW IN PHYSIOLOGICAL SALINE 1/WK FOR 20 WK
  tumour outcome (control, treated, inhibition, significance): 22/25 (88%), 22/24 (92%), -5%, not calculated
Dose [Inhibitor]: 20 IDU/KG BW INJECTED AT 30 MIN INTERVALS FOR 6 DOSES, FIRST DOSE GIVEN SIMULTANEOUSLY WITH EACH CARCINOGEN DOSE (STUDY, Target Tissue: Type of Lesion: PANCREAS: DUCTAL/DUCTULAR CARCINOMA, Dose [Carcinogen]: 2.5 MG/KG BW IN PHYSIOLOGICAL SALINE 1/WK FOR 20 WK
  tumour outcome (control, treated, inhibition, significance): 15/25 (60%), 18/24 (75%), -25%, not calculated
Dose [Inhibitor]: 20 IDU/KG BW INJECTED AT 30 MIN INTERVALS FOR 6 DOSES, LAST DOSE 3 HR PRIOR TO CARCINOGEN DOSE (STUDY DURATION: 46 WK), Target Tissue: Type of Lesion: PANCREAS: DUCTAL/DUCTULAR CARCINOMA, Dose [Carcinogen]: 20 MG/KG BW IN PHYSIOLOGICAL SALINE ONCE
  tumour outcome (control, treated, inhibition, significance): 21/40 (52%), 8/37 (22%), 58%, p<0.025
Dose [Inhibitor]: 20 IDU/KG BW INJECTED AT 30 MIN INTERVALS FOR 6 DOSES, LAST DOSE 3 HR PRIOR TO CARCINOGEN DOSE (STUDY DURATION: 46 WK), Target Tissue: Type of Lesion: PANCREAS: DUCTULAR ADENOMA, Dose [Carcinogen]: 20 MG/KG BW IN PHYSIOLOGICAL SALINE ONCE
  tumour outcome (control, treated, inhibition, significance): 31/40 (78%), 19/37 (51%), 35%, not calculated
Dose [Inhibitor]: 20 IDU/KG BW INJECTED AT 30 MIN INTERVALS FOR 6 DOSES, LAST DOSE 3 HR PRIOR TO CARCINOGEN DOSE (STUDY DURATION: 46 WK), Target Tissue: Type of Lesion: PANCREAS: DUCTULAR PROLIFERATION, Dose [Carcinogen]: 20 MG/KG BW IN PHYSIOLOGICAL SALINE ONCE
  tumour outcome (control, treated, inhibition, significance): 37/40 (92%), 33/37 (89%), 3%, not calculated
Dose [Inhibitor]: 20 IDU/KG BW INJECTED AT 30 MIN INTERVALS FOR 6 DOSES, LAST DOSE GIVEN 3 HR PRIOR TO EACH CARCINOGEN DOSE (STUDY DURATIO, Target Tissue: Type of Lesion: PANCREAS: DUCTAL ADENOMA, Dose [Carcinogen]: 2.5 MG/KG BW IN PHYSIOLOGICAL SALINE 1/WK FOR 20 WK
  tumour outcome (control, treated, inhibition, significance): 17/25 (68%), 25/29 (89%), -31%, not calculated
Dose [Inhibitor]: 20 IDU/KG BW INJECTED AT 30 MIN INTERVALS FOR 6 DOSES, LAST DOSE GIVEN 3 HR PRIOR TO EACH CARCINOGEN DOSE (STUDY DURATIO, Target Tissue: Type of Lesion: PANCREAS: DUCTAL PROLIFERATION, Dose [Carcinogen]: 2.5 MG/KG BW IN PHYSIOLOGICAL SALINE 1/WK FOR 20 WK
  tumour outcome (control, treated, inhibition, significance): 22/25 (88%), 24/29 (86%), 2%, not calculated
Dose [Inhibitor]: 20 IDU/KG BW INJECTED AT 30 MIN INTERVALS FOR 6 DOSES, LAST DOSE GIVEN 3 HR PRIOR TO EACH CARCINOGEN DOSE (STUDY DURATIO, Target Tissue: Type of Lesion: PANCREAS: DUCTAL/DUCTULAR CARCINOMA, Dose [Carcinogen]: 2.5 MG/KG BW IN PHYSIOLOGICAL SALINE 1/WK FOR 20 WK
  tumour outcome (control, treated, inhibition, significance): 15/25 (60%), 23/29 (82%), -37%, not calculated
